Source: article PMC12207533, “Structure-guided design of a methyltransferase-like 3 (METTL3) proteolysis targeting chimera (PROTAC) incorporating an indole–nicotinamide chemotype” (RSC Medicinal Chemistry, 2025)

Legend:
METTL3 mRNA = experiment: RT-qPCR of METTL3 mRNA expression; format: cell-based, human; settings: MOLM-13, AF151 2 μM or STM2457 10 μM, 24 h and 48 h
Experimental: To determine mRNA expression levels of METTL3 and METTL14, MOLM-13 cells were treated in triplicate with compound 41 (AF151, 2 μM), STM2457 (10 μM), and DMSO for 24 resp. 48 h. Afterward, total RNA was extracted using the TRIzol™ reagent (Thermo Fisher Scientific) and purified with the Monarch® Spin RNA Cleanup Kit (New England Biolabs). RT-qPCR was conducted using the two-step GoTaq® RT-qPCR system (Promega) following the manufacturer's protocol. The data were normalized to the DMSO control and GAPDH housekeeping gene (ΔΔCt) using GraphPad Prism 8.0.1.

METTL3 = molecular target: T1, METTL3 (Homo sapiens, UniProt Q86U44); experiment: Immunoblotting of METTL3 protein levels in MOLM-13 cells; format: cell-based
T1 construct: endogenous in cells; host or cells: MOLM-13
T1 sequence (Q86U44 whole entry): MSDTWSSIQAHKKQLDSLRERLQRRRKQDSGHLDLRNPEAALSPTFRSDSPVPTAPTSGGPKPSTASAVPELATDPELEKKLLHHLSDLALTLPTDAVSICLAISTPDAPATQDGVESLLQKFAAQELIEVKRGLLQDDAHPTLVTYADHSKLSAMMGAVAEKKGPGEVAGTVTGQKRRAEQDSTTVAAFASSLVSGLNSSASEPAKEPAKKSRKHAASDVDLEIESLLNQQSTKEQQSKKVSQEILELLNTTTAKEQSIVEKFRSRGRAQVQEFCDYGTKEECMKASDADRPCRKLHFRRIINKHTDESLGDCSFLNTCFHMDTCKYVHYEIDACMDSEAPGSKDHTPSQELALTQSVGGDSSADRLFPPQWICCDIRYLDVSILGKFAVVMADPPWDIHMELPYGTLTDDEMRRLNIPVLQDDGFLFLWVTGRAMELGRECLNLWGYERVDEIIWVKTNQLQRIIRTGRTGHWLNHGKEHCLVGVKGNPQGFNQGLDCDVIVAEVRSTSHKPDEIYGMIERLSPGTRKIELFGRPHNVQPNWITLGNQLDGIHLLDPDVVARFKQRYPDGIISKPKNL
Experimental: MOLM-13 were seeded in 12-well cell culture plates at a density of 1 × 10^6 cells per mL and treated with DMSO (final: 0.1%) or different concentrations of PROTAC degraders in DMSO at the indicated times. Treatments were conducted in biological triplicate with varying passages of MOLM-13 cells. The cells were harvested by centrifugation at 500g for 5 min and washed with PBS. The cells were lysed with RIPA lysis buffer with the addition of protease inhibitor (1× cOMPLETE), and insoluble cellular parts were separated by centrifugation (12 000g for 10 min), subsequently, the supernatant was boiled with 1× Laemmli sample buffer (Carl Roth) for 5 min at 95 °C. Proteins were separated by SDS–PAGE on 4–20% Criterion™ TGX™ Precast Protein Gels (Bio-Rad) and transferred to Amersham™ Protean® 0.45 μm nitrocellulose membrane (Cytiva) using semi-dry transfer (25 V, 1 A, Towbin buffer). The membrane was blocked with 5% milk (Carl Roth) in TBST buffer and incubated with the following primary antibodies: Anti-METTL3 (1 : 1000, Abcam, ab195352), anti-METTL14 (1 : 1000, Abcam, ab220030), anti-Bcl2 (1 : 1000, Cell Signaling Technology [CST], EPR16891), anti-Mcl-1 (1 : 1000, CST, 5453 T), anti-Bcl-XL (1 : 1000, CST, 2764 T), anti-vinculin (1 : 1000, CST, 13901) or anti-GAPDH (1 : 5000, CST, D17C4) overnight at 4 °C. Subsequently, the membrane was incubated for 1 h at RT with secondary antibodies: anti-rabbit (1 : 2000, VWR, NA934) or anti-mouse (1 : 2000, VWR, 102646-160). The protein bands were detected via chemiluminescence using Pierce™ ECL western blotting substrate and a Fusion FX imaging system (Vilber). The ImageLab software (Bio-Rad) was used for band quantification.

METTL3/14 = molecular target: T2, METTL3/14 (Homo sapiens, UniProt Q86U44); experiment: Fluorescence polarization (FP) displacement assay with METTL3/14; format: binding
T2 construct: human METTL3 (UniProt: Q86U44, aa 252–580); Strep-tag II (C); made in house; host or cells: E. coli BL21 (DE3)
T2 sequence (Q86U44 252-580): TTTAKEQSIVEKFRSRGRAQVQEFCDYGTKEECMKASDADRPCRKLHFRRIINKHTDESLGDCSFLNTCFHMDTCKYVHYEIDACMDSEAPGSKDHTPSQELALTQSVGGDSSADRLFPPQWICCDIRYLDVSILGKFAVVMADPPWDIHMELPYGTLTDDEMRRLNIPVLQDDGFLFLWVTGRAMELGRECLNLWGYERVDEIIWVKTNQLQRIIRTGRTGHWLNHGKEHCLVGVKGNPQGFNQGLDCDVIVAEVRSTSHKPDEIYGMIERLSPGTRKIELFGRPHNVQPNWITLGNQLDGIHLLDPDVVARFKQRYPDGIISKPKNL
T2 sequence (Q9HCE5 108-444 partner limits assumed): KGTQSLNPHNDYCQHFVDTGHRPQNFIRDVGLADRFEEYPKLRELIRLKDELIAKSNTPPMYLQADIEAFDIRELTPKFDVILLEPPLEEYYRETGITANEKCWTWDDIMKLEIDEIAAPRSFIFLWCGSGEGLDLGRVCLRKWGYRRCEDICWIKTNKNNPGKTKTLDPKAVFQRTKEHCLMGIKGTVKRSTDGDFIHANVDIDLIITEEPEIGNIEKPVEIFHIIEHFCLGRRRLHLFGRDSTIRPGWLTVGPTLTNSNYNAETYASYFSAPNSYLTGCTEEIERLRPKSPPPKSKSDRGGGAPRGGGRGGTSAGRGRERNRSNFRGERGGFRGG
Experimental: (§1) Fluorescence polarization (FP) displacement assays with METTL3/14 (ref. [36]) and VCB[38–40] were performed following previous protocols with slight adaptations. All experiments were conducted in black Greiner 96-well half-area plates using a Tecan Spark 10 M plate reader, equipped with polarization filters coupled to a monochromator setup (λex = 480 nm, λem = 530 nm). Reaction mixtures for METTL3/14 contained 300 nM recombinant enzyme, 20 nM FAM-labelled displacement tracer (STM-FL[36]), and the test compounds at varying concentrations in 25 mM Tris HCl, pH 7.5, 100 mM NaCl, and 10% DMSO. For VCB, the mixtures contained 40 nM recombinant enzyme, 10 nM FAM-labelled probe (FAM-DEALAHyp[…], Tocris Bioscience), and the tested compounds, at varying concentrations, in 50 mM Tris, pH 7.5, 200 mM NaCl, 2 mM DTT, and 10% DMSO. […] All measurements were performed at least as technical triplicates. Polarization values (mP) were determined from polarization-specific parallel and orthogonal fluorescence intensities using the Tecan in-built calculation routine. Using GraphPad Prism 8.0.1, the FP values were normalized, and KD values were calculated using a 4-parameter Hill equation: y(% probe bound) = bottom + ([ligand]slope) × (top–bottom)/([ligand]slope + KD slope).

[1] = molecular target: T3, VCB (VHL, elongin B, elongin C) (Homo sapiens, UniProt P40337); experiment: FP displacement assay with VCB (binary and ternary KD, cooperativity); format: binding; settings: absence of METTL3, read-out: KD binary (VHL)
T3 construct: VHL (UniProt: P40337, aa 1–213); His6 (N); made in house; host or cells: E. coli BL21 (DE3)
T3 sequence (P40337 whole entry, the tested form may be a part): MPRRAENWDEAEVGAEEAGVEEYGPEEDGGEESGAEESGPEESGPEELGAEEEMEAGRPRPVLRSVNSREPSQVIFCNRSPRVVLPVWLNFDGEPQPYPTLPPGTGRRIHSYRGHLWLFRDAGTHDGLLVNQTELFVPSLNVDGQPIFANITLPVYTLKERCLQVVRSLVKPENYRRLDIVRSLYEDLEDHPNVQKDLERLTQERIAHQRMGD
T3 sequence (Q15370 whole entry partner, the tested form may be a part): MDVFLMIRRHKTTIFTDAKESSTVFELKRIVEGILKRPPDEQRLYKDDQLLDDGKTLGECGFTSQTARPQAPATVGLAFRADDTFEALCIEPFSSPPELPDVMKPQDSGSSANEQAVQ
T3 sequence (Q15369 17-112 partner limits assumed): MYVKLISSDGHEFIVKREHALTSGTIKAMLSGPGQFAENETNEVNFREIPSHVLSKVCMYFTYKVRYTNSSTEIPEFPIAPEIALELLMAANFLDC
Experimental: as §1

time for which maximal METTL3 degradation is maintained (METTL3; 2 μM, time course, MOLM-13): at least 48 h | time of maximal METTL3 degradation effect (METTL3; 2 μM, time course, MOLM-13): 24 h | METTL3 reduction (METTL3; 2 μM, within the first 6 h of treatment, MOLM-13): over 50% | METTL3 degradation (Western blot) (METTL3; MOLM-13, 1 μM, 16 h): significant degradation | concentration of hook effect (METTL3 degradation decreased) (METTL3; MOLM-13, 16 h): > 5 µM | DC50 (METTL3; MOLM-13, 16 h treatment, read-out: DC50 (METTL3 degradation)): 0.43 µM | METTL3 degradation on co-treatment with MLN4924 (METTL3; MOLM-13, MLN4924 1 μM): suppressed METTL3 degradation | Dmax at 2.5 µM (METTL3; MOLM-13, MOLM-13, 16 h, maximal degradation occurred at 2.5 μM): 95% | METTL3 degradation on co-treatment with STM2457 (METTL3; MOLM-13, STM2457 20 μM): inhibited degradation | METTL3 degradation on co-treatment with VH032 (METTL3; MOLM-13, VH032 10 μM): suppressed METTL3 degradation | METTL3 degradation on co-treatment with bortezomib (METTL3; MOLM-13, bortezomib 1 μM): suppressed METTL3 degradation | Kd (METTL3/14): 0.159 ± 0.026 µM | Kd [1]: 0.363 µM
SMILES: Cc1ncsc1-c1ccc(CNC(=O)[C@@H]2C[C@@H](O)CN2C(=O)[C@@H](NC(=O)CCc2ccc(-c3ccc(COc4cncc(C(=O)NCc5ccc6cc(CN7CCC(C)(C)CC7)[nH]c6c5)c4)cc3)cc2)C(C)(C)C)cc1 [compound 41]
METTL3 mRNA level (ΔΔCt) (METTL3 mRNA): no significant changes
